Data taken from patent US7566708B2, “Substituted pyrazolo{3,4-D}pyrimidines as p38 map kinase inhibitors” (Roche Palo Alto LLC, priority 2005, dated 2009).

test system: not given; assay: not given; settings: not given

SMILES	melting point [°C]
Fc1ccccc1Nc1ncc2c(-c3ccccc3Cl)n[nH]c2n1 [Example 2, [3-(2-chlorophenyl)-1H-pyrazolo[3,4-d]pyrimidin-6-yl]-(2-fluorophenyl)amine]	230.2 to 232.4
Fc1ccc(Sc2ncc3c(-c4ccccc4Cl)n[nH]c3n2)c(F)c1 [Example 3, 3-(2-chlorophenyl)-6-(2,4-difluorophenylsulfanyl)-1H-pyrazolo[3,4-d]pyrimidine]	177.6 to 183.2
Fc1ccc(Oc2ncc3c(-c4ccccc4Cl)n[nH]c3n2)c(F)c1 [Example 1, 3-(2-chlorophenyl)-6-(2,4-difluoro-phenoxy)-1H-pyrazolo[3,4-d]pyrimidine]	173.4 to 176.4

More lines, now with the values ahead:

melting point [°C]	SMILES
254.6 to 258.2	C[C@H](O)CNc1nc(Oc2ccc(F)cc2F)nc2[nH]nc(-c3ccccc3Cl)c12 [Example 16, (S)-1-[3-(2-chlorophenyl)-6-(2,4-difluorophenoxy)-1H-pyrazolo[3,4-d]pyrimidin-4-ylamino]propan-2-ol]
143.2 to 144.9	COc1ccccc1-c1n[nH]c2cc(Oc3ccc(F)cc3F)cnc12 [Example 8, 6-(2,4-Difluoro-phenoxy)-3-(2-methoxy-phenyl)-1H-pyrazolo[4,3-b]pyridine]
179.2 to 181.3	OC[C@H](O)COc1nc(Oc2ccc(F)cc2F)nc2[nH]nc(-c3ccccc3Cl)c12 [Example 20, (S)-3-[3-(2-Chloro-phenyl)-6-(2,4-difluoro-phenoxy)-1H-pyrazolo[3,4-d]pyrimidin-4-yloxy]-propane-1,2-diol]
221.3 to 223.1	Clc1ccccc1Oc1ncc2c(-c3cccs3)n[nH]c2n1 [Example 14, 6-(2-Chloro-phenoxy)-3-thiophen-2-yl-1H-pyrazolo[3,4-d]pyrimidine]
240.5 to 241.5	Fc1ccc(Oc2cnc3c(-c4ccccc4Cl)n[nH]c3n2)c(F)c1 [Example 5, 3-(2-chlorophenyl)-6-(2,4-difluorophenoxy)-1H-pyrazolo[3,4-b]pyrazine]
171.2 to 172	C[C@H](O)CNc1nc(Oc2ccc(F)cc2F)cc2[nH]nc(-c3ccccc3Cl)c12 [Example 24, (S)-1-[3-(2-Chloro-phenyl)-6-(2,4-difluoro-phenoxy)-1H-pyrazolo[4,3-c]pyridin-4-ylamino]-propan-2-ol]

target: T1, p38 MAP kinase (Homo sapiens, UniProt Q16539); assay: p38 (MAP) kinase in vitro assay; assay type: biochemical; settings: transfer of γ-33P from ATP to Myelin Basic Protein by phosphorylated recombinant p38 MAP kinase
T1 construct: made in house; host or cells: E. coli (co-expressed with SEK-1 and MEKK to obtain the phosphorylated form)
T1 sequence (Q16539 whole entry): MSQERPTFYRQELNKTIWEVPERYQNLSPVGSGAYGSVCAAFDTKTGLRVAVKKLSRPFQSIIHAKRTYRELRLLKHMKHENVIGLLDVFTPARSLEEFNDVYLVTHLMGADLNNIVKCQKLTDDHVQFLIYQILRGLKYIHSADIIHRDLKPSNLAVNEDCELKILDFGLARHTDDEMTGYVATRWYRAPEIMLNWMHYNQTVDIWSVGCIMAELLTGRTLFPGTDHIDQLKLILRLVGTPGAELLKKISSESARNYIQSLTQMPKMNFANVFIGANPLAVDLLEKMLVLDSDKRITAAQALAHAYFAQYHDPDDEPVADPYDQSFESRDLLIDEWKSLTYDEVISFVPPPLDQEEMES
Description: This example illustrates a p38 (MAP) kinase in vitro assay useful for evaluating the compounds of the invention.
The p38 MAP kinase inhibitory activity of compounds of this invention in vitro was determined by measuring the transfer of the γ-phosphate from γ-^33P-ATP by p-38 kinase to Myelin Basic Protein (MBP), using a minor modification of the method described in Ahn, et al., J. Biol. Chem. 266:4220-4227 (1991). […] The phosphorylated form of the recombinant p38 MAP kinase was co-expressed with SEK-1 and MEKK in E. Coli (see, Khokhlatchev, et al., J. Biol. Chem. 272:11057-11062 (1997)) and then purified by affinity chromatography using a Nickel column.
The phosphorylated p38 MAP kinase was diluted in kinase buffer (20 mM 3-(N-morpholino)propanesulfonic acid, pH 7.2, 25 mM β-glycerol phosphate, 5 mM ethylene glycol-bis(beta-aminoethyl ether)-N,N,N′,N′-tetraacetic acid, 1 mM sodium or tho-vanadate, 1 mM dithiothreitol, 40 mM magnesium chloride). Test compound dissolved in DMSO or only DMSO (control) was added and the samples were incubated for 10 min at 30° C. The kinase reaction was initiated by the addition of a substrate cocktail containing MBP and γ-^33P-ATP. […] The phosphorylated MBP was then separated from the residual γ-^33P-ATP using a phosphocellulose membrane (Millipore, Bedfrod, Mass.) and quantitated using a scintillation counter (Packard, Meriden, Conn.).

IC50 [nM]	SMILES
~1	CC(C)(O)CNc1nc(Oc2ccc(F)cc2F)cc2[nH]nc(-c3cc(F)ccc3F)c12 [Compound 45, 1-[6-(2,4-Difluoro-phenoxy)-3-(2,5-difluoro-phenyl)-1H-pyrazolo[4,3-c]pyridin-4-ylamino]-2-methyl-propan-2-ol]
